# Measured values reported in patent publication US8980933B2, “Combretastatin analogs for use in the treatment of cancer” (Universitat Bayreuth, priority 2010, dated 2015).
# Where “and” joins values, the source holds several entries; their conditions need not be identical. Equal entries are not always repeated.
# Experiments:
# HUVEC cells [1] = assay: Minimal inhibitory concentration in HUVEC; type: cell-based
# Method: (§1) The compounds 9a, 9b and 9c, which are exemplary compounds of formula (III) according to the present invention, as well as the reference compound 25f were tested in a similar manner.
# NHDF fibroblasts = assay: Cytotoxicity, NHDF; type: cell-based; conditions: Homo sapiens; NHDF fibroblasts (non-malign)
# Method: as §1
# L929 fibroblasts = assay: Cytotoxicity, L929; type: cell-based; conditions: Mus musculus, read-out: IC50 L-929
# Method: as §1
# [2] = test system: PtK-2 opossum kidney cells; assay: Cytotoxicity, PtK-2; type: cell-based; conditions: PtK2; PtK-2 opossum kidney cells (non-malign)
# Method: as §1
# KB-3-1 cervix carcinoma = assay: Cytotoxicity, KB-3-1; type: cell-based; conditions: Homo sapiens
# Method: as §1
# PC-3 prostata cancer = assay: Cytotoxicity, PC-3; type: cell-based
# Method: as §1
# [3] = test system: HT-29 colon carcinoma cells; assay: MTT cell growth inhibition, HT-29; type: cell-based, human; conditions: multi-drug resistant HT-29 colon cancer cells
# Method: (§2) The effects of the compounds 5b, 6b, 8a, and 8e according to the present invention and of the reference compound 25f (Wang et al., J. Med. Chem. 2002, 45, 1697-1711) on cells of the following human tumor cell lines were evaluated: 518A2 melanoma, HL-60 leukemia, HT-29 colon carcinoma, KB-V1/Vbl cervical carcinoma, and MCF-7/Topo breast carcinoma.
# (§3) The HL-60 cells were obtained from the German Collection of Biological Material (DSMZ), Braunschweig, Germany; the human 518A2 melanoma cells as well as the testicular germ cell tumor cell lines H12.1 and 1411HP were cultured in the department of oncology and hematology, Medical Faculty of the Martin-Luther University, Halle, Germany; the KBV1/Vbl and the MCF-7/Topo cells were obtained from the Institute of Pharmacy of the University Regensburg, Germany; and the colon HT-29 cells from the University Hospital Erlangen, Germany. The HL-60 and the HT-29 cells were grown in RPMI-1640 medium supplemented with 10% fetal calf serum (FCS), 100 IU/mL penicillin G, 100 μg/mL streptomycin sulfate, 0.25 μg/mL amphotericin B and 250 μg/mL gentamycine (all from Gibco, Egenstein, Germany). The 518A2 and the KB-V1/Vbl cells were cultured in Dulbecco's Modified Eagle Medium (D-MEM, Gibco) containing 10% FCS, 100 IU/mL penicillin G, 100 μg/mL streptomycin sulfate, 0.25 μg/mL amphotericin B and 250 μg/mL gentamycine. The MCF-7/Topo cells were grown in E-MEM medium (Sigma) supplemented with 2.2 g/L NaHCO3, 110 mg/L sodium pyruvate and 5% FCS. The cells were maintained in a moisture-saturated atmosphere (5% CO2) at 37° C. in 75-mL culture flasks (Nunc, Wiesbaden, Germany). They were serially passaged following trypsinisation by 0.05% trypsin/0.02% EDTA (PAA laboratories, Clbe, Germany). Mycoplasma contamination was routinely monitored, and only mycoplasma-free cultures were used.
# (§4) MTT [3-(4,5-dimethylthiazol-2-yl)-2,5-diphenyltetrazolium bromide](ABCR) was used to identify viable cells which reduce it to a violet formazan (Mosmann, J. Immunol. Methods 1983, 65, 55-63). HL-60 leukemia cells (5×10^5/mL), and cells (5×10^4/mL) of 518A2 melanoma, HT-29 colon, KB-V1/Vbl cervix and MCF-7/Topo breast carcinoma were seeded out in 96-well tissue culture plates and cultured for 24 h. Incubation (5% CO2, 95% humidity, 37° C.) of the cells following treatment with the test compounds was continued for 24, 48 or 72 h. Blank and solvent controls were treated identically. MTT in phosphate buffered saline (5 mg/mL) was added to a final concentration of 0.05% (HL-60, 518A2) or 0.1% (HT-29, KB-V1/Vbl, MCF-7/Topo). After 2 h the formazan precipitate was dissolved in 10% sodium dodecylsulfate in DMSO containing 0.6% acetic acid in the case of the HL-60 cells. For the adherent 518A2, KB-V1/Vbl, MCF-7/Topo and HT-29 cells the microplates were swiftly turned to discard the medium before adding the solvent mixture. The microplates were gently shaken in the dark for 30 min and absorbance at 570 nm and 630 nm (background) was measured with an ELISA plate reader. All experiments were carried out in quadruplicate; the percentage of viable cells was calculated as the mean±SD with controls set to 100%.
# [4] = test system: vascular system of a fertilized chicken embryo; assay: CAM assay; type: in vivo; conditions: 10 nmol applied on the embryonal vessels; up to three days
# Method: Compounds of the present invention were tested for anti-angiogenic and vasculature disrupting properties using the CAM assay. In this test the vascular system of a fertilized chicken embryo is used as a model (Wilting et al., Anat. Embryol. 1991, 183, 259-271).
# Fertilized chicken eggs received from a nearby farm directly after laying have been incubated at a temperature of 36-38° C. and a relative humidity of 60%. During the growth the eggs have been held in an inclined position and turned from time to time in order to avoid an adherence to the shell. After four days each embryo was transferred into a cavity created by fixing a thin plastic foil on top of a cup and covered. This was done by opening the shell at the flat end where the air sac resides and letting the content slip out. There the growth continued for another 2-4 days until the first blood vessels became visible. Then 10 nmol of the substance to be tested (in 10 μL PBS with 1% DMF) have been applied directly on the embryonal vessels. As a reference PBS was used. Finally incubation continued for up to another three days (Dugan et al., Anat. Rec. 1991, 229, 125-128; Fisher, Tested studies for laboratory teaching 1993, 5, 105-115).
# 518A2 cells [5] = assay: Mitochondrial membrane assay (JC-1), 518A2; type: cell-based, human; conditions: 5 μM, red/green fluorescence ratio relative to untreated controls (100%), mean ± SD
# Method: (§5) Values represent means of four independent experiments±standard deviation.
# (§6) Changes in mitochondrial membrane potential were determined by the Mitochondrial Membrane Detection Kit (Stratagene, La Jolla, Calif., USA) according to the manufacturer's procedure. 72 h following treatment with 5 μM of the test compounds, cell samples were centrifuged at 400 g for 5 min. The pellets were resuspended in 500 μL diluted JC-1 solution, incubated at 37° C. for 15 min (HL-60) and then centrifuged again for 5 min at 400 g. After washing, the pellets were resuspended in 100 μL PBS and transferred into the wells of a black 96-well plate. The red (λex=585 nm, λem=590 nm) and green (λex=510 nm, λem=527 nm) fluorescence intensities were measured and their ratio was calculated.
# HL-60 cells [6] = assay: Mitochondrial membrane assay (JC-1), HL-60; type: cell-based, human; conditions: 5 μM, red/green fluorescence ratio relative to untreated controls (100%), mean ± SD
# Method: as §5, §6
# HUVEC cells [7] = assay: Tube formation assay on matrigel; type: cell-based
# Method: 35 μL of media:matrigel (1:1) were added into wells of a 96-well plate and incubated at 37° C. for 30 minutes. A trypsinized HUVEC cell suspension was set to 800.000 cells/mL. In another 96-well plate 25 μL of the compound stock were serially diluted with 25 μL of media. 25 μL of compound dilutions and 25 μL of cell suspension were added to the matrigel coated 96-well plate and the cells were incubated over night. As a negative control, methanol was used as in place of the compound dilutions.
# [8] = test system: MCF-7/Topo breast carcinoma cells; assay: MTT cell growth inhibition, MCF-7/Topo; type: cell-based, human; conditions: MCF-7/Topo (BCRP+)
# Method: as §2, §3
# as §4, with “MTT in phosphate buffered saline (5 mg/mL) was added to a final concentration of 0.05% (HL-60, 518A2) or 0.1% (HT-29, KB-V1/Vbl, MCF-7/Topo). After 2 h the formazan precipitate was dissolved in 10% sodium dodecylsulfate in DMSO containing 0.6% acetic acid in the case of the HL-60 cells. For the adherent 518A2, KB-V1/Vbl, MCF-7/Topo and HT-29 cells the microplates were swiftly turned to discard the medium before adding the solvent mixture.” left out
# HL-60 cells [9] = assay: TUNEL assay; type: cell-based, human; conditions: 10 μM; 16 h incubation
# 518A2 cells [10] = assay: ROS generation, NBT assay, 518A2; type: cell-based, human; conditions: 50 μM, relative to untreated controls (1%), mean ± SD
# Method: (§7) The generation of reactive oxygen species (ROS) in tumor cells is a sign of cellular stress resulting in severe damage of cellular components such as DNA, lipids or proteins.
# (§8) For the NBT assay, HL-60 cells (0.5·10^6/mL) were plated in 96-well tissue culture plates, and test compounds were added after 24 h incubation at 37° C. to achieve a final concentration of 50 μM. […] After removal of the cell medium by centrifugation, the cells in each well were resuspended in 100 μL 0.1% NBT, and the plates were placed in the incubator for 1 h. The reduced NBT was solubilized with 100 μl 2 M KOH and 130 μl DMSO for 30 min. The absorbance was measured for each well at 630 and 405 nm (background) using an ELISA plate reader. The adherent 518A2 cells (0.5·10^4/mL) were seeded out in 96-well tissue culture plates after trypsinization and incubation for 24 h at 37° C. to allow attachment, then treated similarly, only that the medium was removed prior to incubation with NBT for 4 h. All experiments were carried out in quadruplicate.
# [11] = test system: KB-V1/Vbl cervical carcinoma cells; assay: MTT cell growth inhibition, KB-V1/Vbl; type: cell-based, human; conditions: KB-V1/Vbl (Pgp+)
# Method: The MCF-7/Topo cells were grown in E-MEM medium (Sigma) supplemented with 2.2 g/L NaHCO3, 110 mg/L sodium pyruvate and 5% FCS. The cells were maintained in a moisture-saturated atmosphere (5% CO2) at 37° C. in 75-mL culture flasks (Nunc, Wiesbaden, Germany). They were serially passaged following trypsinisation by 0.05% trypsin/0.02% EDTA (PAA laboratories, Clbe, Germany). Mycoplasma contamination was routinely monitored, and only mycoplasma-free cultures were used.
# as §4, with “HL-60” for “MTT [3-(4,5-dimethylthiazol-2-yl)-2,5-diphenyltetrazolium bromide](ABCR) was used to identify viable cells which reduce it to a violet formazan (Mosmann, J. Immunol. Methods 1983, 65, 55-63). HL-60”, “Incubation (5% CO2, 95% humidity, 37° C.) of the cells following treatment with the test compounds was continued for 24, 48 or 72 h.” left out
# HL-60 cells [12] = assay: ROS generation, NBT assay, HL-60; type: cell-based, human; conditions: 50 μM, relative to untreated controls (1%), mean ± SD
# Method: as §7, §8
Compound,minimal inhibitory concentration (MIC) HUVEC (HUVEC cells [1]),IC50 (NHDF fibroblasts),IC50 (L929 fibroblasts),IC50 [2],IC50 (KB-3-1 cervix carcinoma),IC50 (PC-3 prostata cancer),cytotoxicity (comparison) [3],effect on embryonal blood vessels [4],Intact mitochondria [%] in 518A2 cells after 72 h (518A2 cells [5]),Intact mitochondria [%] in HL-60 cells after 72 h (HL-60 cells [6]),inhibition of tube formation (HUVEC cells [7]; 7.72 ng/mL),cytotoxicity / efficacy (comparison) [8],apoptotic (TUNEL-positive) cells (HL-60 cells [9]),NBT Reduction [%] in 518A2 cells after 24 h (518A2 cells [10]),efficacy (comparison) [11],NBT Reduction [%] in HL-60 cells after 24 h (HL-60 cells [12]),concentration that inhibits tube formation (HUVEC cells [7])
"COc1ccc(-c2ncn(C)c2-c2cc(Br)c(OC)c(OC)c2)cc1F [9a, 1-Methyl-5-(3-bromo-4,5-dimethoxyphenyl)-4-(3-fluoro-4-methoxyphenyl)imidazole]",0.109 µM,175 nM,24 nM,437 nM,4.4 nM,,,,,,,,,,,,
"COc1ccc(-c2ncn(C)c2-c2cc(Br)c(OC)c(Br)c2)cc1F [9b, 1-Methyl-4-(3-fluoro-4-methoxyphenyl)-5-(3,5-dibromo-4-methoxyphenyl)-imidazole]",0.257 µM,395 nM,21700 nM,1180 nM,14 nM,9.9 nM,,,,,,,,,,,
"COc1ccc(-c2ncn(C)c2-c2cc(I)c(OC)c(I)c2)cc1F [9c, 1-Methyl-4-(3-fluoro-4-methoxyphenyl)-5-(3,5-diiodo-4-methoxyphenyl)-imidazole]",0.083 µM,3330 nM,18 nM,333 nM,2.5 nM,3.3 nM,,,,,,,,,,,
"COc1ccc(/C=C\c2cc(OC)c(OC)c(OC)c2)cc1O [CA-4, combretastatin A-4, reference compound]",,,,,,,lower cytotoxicities than compounds 5b and 6b,dramatic vessel shrinkage within 24 h after treatment and to a complete degradation of the vascular system within three days,,,,,,,,,
"COc1ccc(-c2ocnc2-c2cc(N)c(OC)c(OC)c2)cc1N [compound 8a, 4-(3′-Amino-4′,5′-dimethoxyphenyl)-5-(3″-amino-4″-methoxyphenyl)-oxazole]",,,,,,,,,85 ± 7%,62 ± 9%,pronounced inhibition of tube formation,greater efficacy than 25f and 5b/6b,about 60%,1.5 ± 0.1%,greater efficacy than 25f and 5b/6b,3.5 ± 0.4%,
"COc1ccc(-c2c(-c3cc(OC)c(OC)c(OC)c3)ncn2C)cc1N [compound 25f, reference compound]",0.294 µM,136 nM,215 nM,453 nM,68 nM,90 nM,,,87 ± 7%,74% and 74 ± 13%,,,,2.2 ± 0.4%,,,130 ng/mL
